These results are taken from patent US6638955B2, “Antibiotic oxazolidinone derivatives” (priority 1996, dated 2003).

Structures are written as SMILES. In brackets after ≈: the same amount, converted by molar mass.

Holding throughout (experiment): MIC, agar-dilution, standard in-vitro test
Holding throughout (format): cell-based

Experiment [1] relates to Staphylococcus aureus MRQS (methicillin resistant quinolone sensitive). The note with it: 10^4 CFU/spot, 37° C., 24 hours. The procedure:
(§1) The following results were obtained on a standard in-vitro test system. The activity is described in terms of the minimum inhibitory concentration (MIC) determined by the agar-dilution technique with an inoculum size of 10^4 CFU/spot.
(§2) Staphylococci were tested on agar, using an inoculum of 10^4 CFU/spot and an incubation temperature of 37° C. for 24 hours—standard test conditions for the expression of methicillin resistance.

In experiment [2] the test system is Coagulase Negative Staphylococcus MR (methicillin resistant). Particulars: 10^4 CFU/spot, 37° C., 24 hours. How it is done: as §1, §2
In experiment [3] the test system is Staphylococcus aureus MRQR (methicillin resistant quinolone resistant). Particulars: 10^4 CFU/spot, 37° C., 24 hours. The procedure:
as §1, §2

Experiment [4] relates to Coagulase Negative Staphylococcus MS (methicillin sensitive). Particulars: 10^4 CFU/spot, 37° C., 24 hours. The procedure:
as §1, §2

In experiment [5] the test system is Staphylococcus aureus Novb. Res (Novobiocin resistant). The note with it: 10^4 CFU/spot, 37° C., 24 hours. The procedure: as §1, §2
Experiment [6] relates to Staphylococcus aureus Oxford. The note with it: 10^4 CFU/spot, 37° C., 24 hours. The procedure:
as §1, §2

In a further experiment the test system is Bacillus subtilis. The note with it: 10^4 CFU/spot.
From the text: as §1

For experiment [7], the system named is Streptococcus pyogenes C203. Particulars: agar with 5% defibrinated horse blood, 10^4 CFU/spot, 37° C., 5% carbon dioxide, 48 hours. The procedure:
as §1
(§3) Streptococci and enterococci were tested on agar supplemented with 5% defibrinated horse blood, an inoculum of 10^4 CFU/spot and an incubation temperature of 37° C. in an atmosphere of 5% carbon dioxide for 48 hours—blood is required for the growth of some of the test organisms.

The subject of the next experiment is Enterococcus faecalis. Particulars: agar with 5% defibrinated horse blood, 10^4 CFU/spot, 37° C., 5% carbon dioxide, 48 hours. The procedure:
as §1, §3

The term MIC denotes the lowest concentration that inhibits growth of the organism. High values mean weaker potency, low ones greater potency. `CC(=O)NC[C@H]1CN(c2ccc(C3=CCN(C(=O)OC(C)(C)C)CC3)cc2)C(=O)O1` [Example 1, N-((5S)-3-(4-(1-tert-butoxycarbonyl-1,2,5,6-tetrahydropyrid-4-yl)phenyl)-2-oxoxazolidin-5yl-methyl)acetamide]: the MIC in experiment [1] turned out to be 0.5 µg/mL (≈ 1.2 µM); in experiment [2], 1.0 µg/mL (≈ 2.41 µM); in experiment [3], 0.5 µg/mL (≈ 1.2 µM); in [4], 0.25 µg/mL (≈ 0.602 µM); in [5] it was 0.5 µg/mL (≈ 1.2 µM); in experiment [6], 1.0 µg/mL (≈ 2.41 µM). The values for the minimal inhibitory concentration (MIC) (against Bacillus subtilis; in experiment [7]; in the experiment on Enterococcus faecalis) were 0.25 µg/mL (≈ 0.602 µM), 1.0 µg/mL (≈ 2.41 µM) and 1.0 µg/mL (≈ 2.41 µM), respectively.
